Assay results reported in patent US9579299B2, “CNS pharmaceutical compositions and methods of use” (TARGIA PHARMACEUTICALS, priority 2008, dated 2017).
“And” between values parts separate entries of the source, which are not always exact repeats. Identical values can stand only once. “Also recorded” adds a separate entry of the source. Like-named read-outs stand apart in the source and are kept apart here.

Legend:
subject [1] = assay: Example 4: Flunitrazepam with pseudoephedrine and Mucinex, subject report
[2] = parent drug; cited from earlier work
four healthy volunteers = assay: Example 9: Stanford Sleepiness Scale study with lorazepam; assay type: in vivo, human; settings: for 2:00 SSS / 4:00 SSS / 6:00 SSS / time until subject was asleep: individual subjects
Experimental: The purpose of this study was to determine if the co-administration of pseudoephedrine and guaifenesin with lorazepam is effective in reducing the sedation commonly seen with the administration of lorazepam alone. The research study was performed on four healthy volunteers ages 25-41 years old and 60-75 kg. The study was carried out by two sessions with a one-week interval between the sessions. During the study volunteers completed a set of tests to measure sleepiness by the Stanford Sleepiness Scale (SSS). This test was done before doses of study drug and 2, 4 and 6 hours after doses of study drug (see FIG. 5 for an illustration of the study scheme).
At the first study session volunteers received the treatment (Lorazepam 1.0 mg)+PLAC (placebo)+ and 15 minutes later another PLAC. […] They stayed awake at the 4- and 6-hour time points. Their SSS scores were 2. Two subjects were asleep in one hour. One of them slept 3.5 hours, their SSS at the 6-hour time point was 2. The second subject slept 2.5 hours, and their SSS scores for both the 4- and 6-hour time points were 2. […] They remained awake at the 4- and 6-hour time points. Their SSS scores were 2.
At the second study session volunteers received the treatment (Lorazepam 1.0 mg+60 mg of pseudoephedrine) and 15 minutes later received 400 mg of guaifenesin. During this session all four subjects remained awake most of the time. […] They missed the 2-hour time point measurement, and their SSS scores for the 4- and 6-hour time points were 2 and 3, respectively. […] Their SSS score for 2-hour time point was 2. This subject was asleep again within 3 and a half hours and slept for one hour. They missed the 4-hour time point, but was awake for measurements at the 6-hour time point (SSS was 2). […] They stayed awake the rest of the time, and their SSS scores for the 2-, 4-, and 6-hour time points were 3,2,3 respectively.

subject [3] = assay: Example 5: Lorazepam with pseudoephedrine and Mucinex, subject report; assay type: in vivo, human; settings: Lorazepam 1 mg and pseudoephedrine 60 mg; 15 minutes later Mucinex 600 mg
Experimental: The subject reported that they took Lorazepam 1 mg and pseudoephedrine 60 mg at 12 noon and 15 minutes later ingested and Mucinex 600 mg.

[4] = system: Volunteer A, a healthy person; assay: Example 6: Volunteer A, Lorazepam with and without neuromodulators; assay type: in vivo, human
Experimental: Volunteer A, a healthy person ([…], 95 Kg), was prescribed 1 mg Lorazepam (BDR) by their family doctor for anxiety and anxiety related insomnia. Volunteer A took Lorazepam in conjunction with the neuromodulators to reduce Lorazepam's associated sedative side-effects. Volunteer A, who felt their anxiety peak particularly on weekends, agreed to take Lorazepam during the day together with the neuromodulators. […] When taking Lorazepam simultaneously with Pseudoephedrine, Guaifenesin and, Volunteer A was sedated and less anxious.

[5] = cited from earlier work
[6] = cited from earlier work; remark: listed apart in the source
healthy volunteer = assay: Example 2: volunteer with lower back pain, Soma with neuromodulators; assay type: in vivo, human
Experimental: A healthy volunteer was prescribed 250 mg two times a day Soma by their family doctor for reduction of lower back pain. […] The volunteer agreed to take Soma during the day together with the neuromodulation treatment. They took Soma in the morning and afternoon together with Pseudoephedrine followed 15 minutes later by Guaifenisin.

patient = assay: Example 1: patient with tooth pain, Soma with neuromodulators; assay type: in vivo, human; settings: Soma with 60 mg Pseudoephedine, 600 mg Guaifenesin 10 min later
Experimental: A patient had experienced tooth pain. The patient was given the following treatment: at 11:00 a.m.-co-administration of Soma (Carisoprodol) with 60 mg of Pseudoephedine. At 11:10 a.m.-600 mg of Guaifenesin. […] At no time during the treatment did the patient feel somnolent or have any desire to sleep.

[7] = antiparkinsonian drugs; cited from earlier work
treated patients = settings: cited from earlier work; for Psychiatric side-effects: anti-epileptics
[8] = in vivo; cited from earlier work
[9] = cited from earlier work; remark: listed apart in the source
[10] = cited from earlier work; remark: listed apart in the source
[11] = First Visit Day on Placebo: Lorazepam 1.0 mg + placebo
[12] = First Visit Day on Placebo: Lorazepam 1.0 mg + placebo, listed as lorazepam
[13] = Lorazepam 1.0 mg + pseudoephedrine, guaifenesin 15 minutes later
[14] = Second Visit Day on Active Neuromodulation: Lorazepam 1.0 mg + 60 mg pseudoephedrine, 400 mg guaifenesin 15 minutes later
[15] = Second Visit Day on Active Neuromodulation: Lorazepam 1.0 mg + 60 mg pseudoephedrine, 400 mg guaifenesin 15 minutes later, listed as lorazepam
[16] = 1 mg Lorazepam together with Pseudoephedrine followed by Guaifenesin after 15 minutes
[17] = Lorazepam followed 15 minutes later by Guaifenesin
[18] = Lorazepam simultaneously with Pseudoephedrine, Guaifenesin
[19] = Lorazepam together with pseudoephedrine
[20] = Soma with Pseudoephedrine, Guaifenisin 15 minutes later, two-day regimen
[21] = oral ingestion 75-100 mg/kg in humans

CN1C(=O)CN=C(c2ccccc2F)c2cc([N+](=O)[O-])ccc21 [Flunitrazepam]
subject-reported effects (subject [1]; Flunitrazepam 0.5 mg, 15 minutes later pseudoephedrine 60 mg and Mucinex 600 mg): a little “loopy” | subject-reported effects (subject [1]; Flunitrazepam 1.0 mg, at the same time pseudoephedrine 60 mg and Mucinex 600 mg): started to feel tranquilized

O=C1Nc2ccc(Cl)cc2C(c2ccccc2Cl)=NC1O (stereo not shown) [Lorazepam]
Elimination Half-Life [2]: 10 to 20 h | 2:00 SSS (four healthy volunteers; [11]): X - Asleep | 4:00 SSS (four healthy volunteers; [11]): 2 | 6:00 SSS (four healthy volunteers; [11]): 2 | 4:00 SSS (four healthy volunteers; [12]): 2 (2×) and 3 and X - Asleep | 6:00 SSS (four healthy volunteers; [12]): 2 (3×) and X - Asleep | sleep duration of individual subjects (four healthy volunteers; Lorazepam 1.0 mg + placebo): three hours and 3.5 hours and 2.5 hours and 1 hour 15 minutes | time until subject was asleep (four healthy volunteers; Lorazepam 1.0 mg + placebo): within a half hour; also recorded: in one and a half hours | sleep duration of individual subjects (four healthy volunteers; [13]): stayed awake throughout the study and half an hour and 15 minutes and one hour | time until subject was asleep (four healthy volunteers; [13]): within an hour and a half | 2:00 SSS (four healthy volunteers; [14]): 3 and 2 | 4:00 SSS (four healthy volunteers; [14]): 3 and 2 | 6:00 SSS (four healthy volunteers; [14]): 3 and 2 | 2:00 SSS (four healthy volunteers; [15]): 3 (2×) and X - Asleep and 2 | 4:00 SSS (four healthy volunteers; [15]): 3 and 2 (2×) and X - Asleep | 6:00 SSS (four healthy volunteers; [15]): 3 (3×) and 2 | total sleep time (four healthy volunteers; second session, Lorazepam administrated with neuromodulators, two subjects): 30 min | subject-reported effects (subject [3]): a little “loopy” | anxiety reported [4, 16]: feeling at ease and anxiety free | sedation reported [4, 16]: did not feel sedated | anxiety reported ([4]; Lorazepam alone): their anxiety was ameliorated | sedation reported ([4]; Lorazepam alone): severely sedated | sleep in an afternoon ([4]; Lorazepam alone): over 3 hours | anxiety reported [4, 17]: hostile and anxious | sedation reported [4, 17]: somewhat sedated | anxiety reported [4, 18]: less anxious | sedation reported [4, 18]: sedated | anxiety reported [4, 19]: upon waking felt much less anxious than without treatment | sedation reported [4, 19]: as sedated as with Lorazepam alone | Tmax ([5]; CNS active agent): 2 h | bioactivity ([5]; CNS active agent): 90%

CCCC(C)(COC(N)=O)COC(=O)NC(C)C (stereo not shown) [Carisoprodol]
Half-life ([6]; in vivo): 2.5 h | Tmax ([6]; in vivo): 1.5 to 2 h | sedative side-effect (healthy volunteer; Soma 250 mg two times a day alone): suffered from the sedative side-effect of Soma | back pain (healthy volunteer; [20]): back pain was effectively reduced | sedation reported (healthy volunteer; [20]): did not feel sedated | sedation or other side-effects reported by patient (patient): without any sedation or other side-effects | pain reported by patient (patient; tooth pain): less pain than prior to the procedure

CN1CCc2cccc3c2[C@H]1Cc1ccc(O)c(O)c1-3 [Apomorphine]
Tmax ([6]; stated in words (injection / IV)): (fast, but injection) | Psychiatric side-effects [7]: Sedation, psychomotor agitation, anxiety,

NCC1(CC(=O)O)CCCCC1 [Gabapentin, 1-(aminomethyl)-cyclohexylacetic acid]
Psychiatric side-effects (treated patients): Sedation, agitation, fatigue

Nc1nnc(-c2cccc(Cl)c2Cl)c(N)n1 [Lamotrigine]
Psychiatric side-effects (treated patients): Sedation, depression, agitation, psychosis | Psychosis, % of treated patients (treated patients): (0.3% of treated patients)

CC(C)C[C@H]1C(=O)N2CCC[C@H]2[C@]2(O)O[C@](NC(=O)[C@@H]3C=C4c5cccc6[nH]c(Br)c(c56)C[C@H]4N(C)C3)(C(C)C)C(=O)N12 [Bromocriptine]
Half-life ([6]; in vivo): 7 h | Tmax ([6]; in vivo): 1 to 2 h | Psychiatric side-effects [7]: Sedation, psychomotor agitation, anxiety,

C=CCN1C[C@H](C(=O)N(CCCN(C)C)C(=O)NCC)C[C@@H]2c3cccc4[nH]cc(c34)C[C@H]21 [Cabergoline]
Half-life ([6]; in vivo): 63 to 69 h | Tmax ([6]; in vivo): 0.5 to 4 h | Psychiatric side-effects [7]: Sedation, psychomotor agitation, anxiety,

Cc1ccsc1C(=CCCN1CCC[C@@H](C(=O)O)C1)c1sccc1C [Tiagabine]
Psychiatric side-effects (treated patients): Psychosis (0.8% of treated patients), depressive symptoms | Psychosis, % of treated patients (treated patients): 0.8%

CCCN[C@H]1CCc2nc(N)sc2C1 [Pramipexole]
Tmax ([6]; in vivo): 1 h | Psychiatric side-effects [7]: Sedation, psychomotor agitation, anxiety,

CCCC(CCC)C(=O)[O-].[Na+] [Sodium valproate]
Psychiatric side-effects (treated patients): Sedation, hallucinations, depressive symptoms, delirium

NC(=O)N1c2ccccc2C=Cc2ccccc21 [Carbamazepine]
Elimination Half-Life [8]: about 12 hours | Psychiatric side-effects (treated patients): Depression, agitation, sedation, psychosis, cognitive

Cc1cc(C)cc(OCC2CNC(=O)O2)c1 (stereo not shown) [Metaxalone]
Half-life ([6]; in vivo): 5 to 12 h | Tmax ([6]; in vivo): 3 h | duration ([9]; in vivo): four to six hours

CCCN(CCC)CCc1cccc2c1CC(=O)N2 [Ropinirole]
Half-life ([6]; in vivo): 6 h | Tmax ([6]; in vivo): 1 to 2 h | Psychiatric side-effects [7]: Sedation, psychomotor agitation, anxiety,

O=C(O)CCCO [GHB, g-Hydroxybutyric acid]
Tmax ([10]; 25 mg/kg): approximately 30 minutes | Tmax ([10]; 50 mg/kg): around 45 minutes | peak blood levels [10, 21]: 90 to 100 µg/mL | time of peak blood levels after ingestion [10, 21]: 1 to 2 h | onset of action ([10]; orally): ≤ 15 min | Tmax ([5]; CNS active agent): 0.5 to 2 h

CN1[C@@H]2CC[C@H]1C[C@@H](OC(c1ccccc1)c1ccccc1)C2 [Benzatropine]
Half-life ([6]; in vivo): 36 h | Tmax ([6]; in vivo): 1 to 2 h | Psychiatric side-effects [7]: Sedation, anxiety, psychosis, delirium,

CN(C)CCC=C1c2ccccc2C=Cc2ccccc21 [Cyclobenzaprine]
Half-life ([6]; in vivo): 8 to 37 h | Tmax ([6]; in vivo): 1 to 2 h | Half-life ([6]; in vivo, listed as Flexeril): 24 to 72 h | Tmax ([6]; in vivo, listed as Flexeril): 1 h | Elimination Half-Life [8]: 24 to 72 h

CNC[C@H](O)c1cccc(O)c1 [Phenylephrine]
Tmax ([5]; selected neuromodulators): 0.167 to 0.25 h | duration of anti-hypotensive effect ([9]; after a single intravascular injection): approximately 20 minutes

CCCN1C[C@H](CSC)C[C@@H]2c3cccc4[nH]cc(c34)C[C@H]21 [pergolide]
Psychiatric side-effects [7]: Sedation, psychomotor agitation, anxiety,

CCC1(c2ccccc2)C(=O)NCNC1=O [Primidone]
Psychiatric side-effects (treated patients): Sedation, mood lability, psychotic symptoms, delirium
